Laboratory results taken from patent publication US20250332173A1, “COMPOUNDS AND METHODS FOR MODULATING NUCLEIC ACID SPLICING” (REMIX THERAPEUTICS INC., priority 2021, published 2025).

Assays:
Target C = experiment: RT-qPCR splicing assay panel, Target C canonical junction (CJ) mRNA; format: cell-based, human; details: Homo sapiens; Table 5 panel; canonical junction qPCR; compound concentration having 50% response in CJ decrease; read-out: Target C IC50 (decrease in CJ mRNA levels)
Method in brief: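 A673 or K562 cells were treated for 24 h at 37 °C with compound in 11-point 3-fold dilution (top 10 uM final, DMSO ≤0.25%). Lysates then went to one-step RT-qPCR measuring canonical-junction mRNA, normalized to GAPDH, GUSB or PPIA.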

HTT = experiment: HiBiT protein abundance assay, HTT HiBiT K562 cell line; format: cell-based, human; details: HiBiT K562 cell line, 24 hours, top dose 10 μM; read-out: Effect on protein abundance, HTT (IC50 category)
Method in brief: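 K562 knock-in lines with endogenous HiBiT-tagged target, 10,000 cells/well in IMDM + FBS, treated 24 h at 37° C with 10-point 3-fold dilutions (top 10 μM final; DMSO ≤0.25%). Lytic Nano-Glo HiBiT luminescence normalized to untagged K562 baseline and DMSO controls; IC50 = concentration giving 50% abundance via four-parameter fit.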

Row | IC50 (Target C) [nM] | IC50 (HTT) [nM] | Compound
1 | > 10000 | > 10000 | Cc1cn2cc(-c3cc(N)c4c(=O)n(C5CCNCC5)cnc4c3)cc(C#N)c2n1 [Compound 364, 6-[5-amino-4-oxo-3-(piperidin-4-yl)quinazolin-7-yl]-2-methylimidazo[1,2-a]pyridine-8-carbonitrile]
2 | 100 to 1000 | < 100 | Cc1cn2cc(-c3cc(F)c4c(=O)n(C5CCNC6(CC6)C5)ccc4c3)cc(C)c2n1 (centres unmarked) [Compound 416, 2-{4-azaspiro[2.5]octan-7-yl}-6-{2,8-dimethylimidazo[1,2-a]pyridin-6-yl}-8-fluoroisoquinolin-1-one]
3 | 100 to 1000 | < 100 | CCN1CCC(n2ccc3cc(-c4cc(C)c5nc(C)cn5n4)ccc3c2=O)CC1 [Compound 402, 6-{2,8-dimethylimidazo[1,2-b]pyridazin-6-yl}-2-(1-ethylpiperidin-4-yl)isoquinolin-1-one]
4 | 100 to 1000 | 100 to 1000 | Cc1cn2cc(-c3cc(F)c4c(=O)n(C5CCOC5)cnc4c3)cc(C#N)c2n1 (stereo in doubt) [Compound 500, (S)-6-(5-fluoro-4-oxo-3-(tetrahydrofuran-3-yl)-3,4-dihydroquinazolin-7-yl)-2-methylimidazo[1,2-a]pyridine-8-carbonitrile]
5 | 1000 to 10000 | 1000 to 10000 | Cn1cc2cc(-c3cc(F)c4c(=O)n(C5CCNC6(CC6)C5)ccc4c3)c(O)c(F)c2n1 (centres unmarked) [Compound 420, 2-{4-azaspiro[2.5]octan-7-yl}-8-fluoro-6-(7-fluoro-6-hydroxy-2-methylindazol-5-yl)isoquinolin-1-one]
6 | 100 to 1000 | < 100 | Cc1cn2nc(-c3ccc4c(=O)n(C5CCNC6(CC6)C5)ccc4c3)cc(C)c2n1 (centres unmarked) [Compound 384]
7 | 100 to 1000 | < 100 | Cc1cn2cc(-c3cc(F)c4c(=O)n(C5CCNC6(CC6)C5)ccc4c3)cc(Cl)c2n1 (centres unmarked) [Compound 413, 2-{4-azaspiro[2.5]octan-7-yl}-6-{8-chloro-2-methylimidazo[1,2-a]pyridin-6-yl}-8-fluoroisoquinolin-1-one]
8 | > 10000 | 1000 to 10000 | Cc1cn2nc(-c3ccc4c(=O)n(C5CCCNC5)ccc4c3)cc(C)c2n1 (stereo in doubt) [Compound 411, 6-{2,8-dimethylimidazo[1,2-b]pyridazin-6-yl}-2-[(3R)-piperidin-3-yl]isoquinolin-1-one]
9 | 100 to 1000 | 100 to 1000 | Cc1cn2cc(-c3ccc4c(=O)n(C5CCNCC5)cc(C)c4c3)cc(F)c2n1 [Compound 440, 6-{8-fluoro-2-methylimidazo[1,2-a]pyridin-6-yl}-4-methyl-2-(piperidin-4-yl)isoquinolin-1-one]
10 | 1000 to 10000 | 1000 to 10000 | Cc1cn2nc(-c3cc(O)c4c(=O)n(C5CCNC5)ccc4c3)cc(C)c2n1 (centres unmarked) [Compound 432, 6-{2,8-dimethylimidazo[1,2-b]pyridazin-6-yl}-8-hydroxy-2-(pyrrolidin-3-yl)isoquinolin-1-one]
11 | > 10000 | > 10000 | CN1CCC(Nc2ccc3c(=O)n(-c4ccc5nn(C)cc5c4)cnc3c2)CC1 [Compound 163]
12 | 1000 to 10000 | 100 to 1000 | CC(=O)c1cc(-c2cc(F)c3c(=O)n(C4CCNCC4)ccc3c2)cn2cc(C)nc12 [Compound 393, 6-{8-acetyl-2-methylimidazo[1,2-a]pyridin-6-yl}-8-fluoro-2-(piperidin-4-yl)isoquinolin-1-one 2,2,2-trifluoroacetate]
13 | < 100 | < 100 | Cc1cn2nc(-c3cc(C)c4c(=O)n(C5CCNC6(CC6)C5)ccc4c3)cc(C)c2n1 (stereo in doubt) [Compound 398, (R)-6-(2,8-dimethylimidazo[1,2-b]pyridazin-6-yl)-8-methyl-2-(4-azaspiro[2.5]octan-7-yl)isoquinolin-1(2H)-one]
14 | < 100 | < 100 | Cc1cn2nc(-c3cc(Cl)c4c(=O)n(C5CCNCC5)ccc4c3)cc(C)c2n1 [Compound 390, 8-chloro-6-{2,8-dimethylimidazo[1,2-b]pyridazin-6-yl}-2-(piperidin-4-yl)isoquinolin-1-one; trifluoroacetaldehyde]
15 | > 10000 | 1000 to 10000 | Cc1cn2nc(-c3cc(O)c4c(=O)n(C5CCNC5)cc(C)c4c3)cc(C)c2n1 (centres unmarked) [Compound 462]
16 | 1000 to 10000 | 1000 to 10000 | Cc1cc(-c2ccc3c(=O)n(C4CCNC5(COC5)C4)cnc3c2)cc2cn(C)nc12 (centres unmarked) [Compound 375]
17 | < 100 | < 100 | Cn1cc2cc(-c3cc(F)c4c(=O)n(C5CCNC6(CC6)C5)ccc4c3)cc(F)c2n1 (centres unmarked) [Compound 412]
18 | 100 to 1000 | < 100 | Cc1nc2c(F)cc(-c3cc(F)c4c(=O)n(C5CCNC6(CC6)C5)ccc4c3)cc2o1 (centres unmarked) [Compound 417, 2-{4-azaspiro[2.5]octan-7-yl}-8-fluoro-6-(4-fluoro-2-methyl-1,3-benzoxazol-6-yl)isoquinolin-1-one]
19 | > 10000 | 1000 to 10000 | Cn1cc2cc(-c3cc(F)c4c(=O)n(C5CCNC6(CC6)C5)ccc4c3)c(O)cc2n1 (centres unmarked) [Compound 414, 2-{4-azaspiro[2.5]octan-7-yl}-8-fluoro-6-(6-hydroxy-2-methylindazol-5-yl)isoquinolin-1-one]
20 | > 10000 | > 10000 | COc1cc2c(=O)n(C3CCNCC3)ccc2cc1-c1cc(C)c2nc(C)cn2n1 [Compound 449, 6-{2,8-dimethylimidazo[1,2-b]pyridazin-6-yl}-7-methoxy-2-(piperidin-4-yl)isoquinolin-1-one]
21 | 100 to 1000 | < 100 | Cc1cn2nc(-c3cc(C)c4c(=O)n(C5CCNC6(CC6)C5)ncc4c3)cc(C)c2n1 (centres unmarked) [Compound 423, 6-(2,8-dimethylimidazo[1,2-b]pyridazin-6-yl)-8-methyl-2-(4-azaspiro[2.5]octan-7-yl)phthalazin-1(2H)-one]
22 | > 10000 | > 10000 | Cc1cn2cc(-c3cc(S(C)(=O)=O)c4c(=O)n(C5CCNCC5)ccc4c3)cc(F)c2n1 [Compound 409, 6-(8-fluoro-2-methylimidazo[1,2-a]pyridin-6-yl)-8-(methylsulfonyl)-2-(piperidin-4-yl)isoquinolin-1(2H)-one]
23 | 100 to 1000 | < 100 | Cc1cn2cc(-c3cc(F)c4c(=O)n(C5CCNCC5)cc(C)c4c3)cc(F)c2n1 [Compound 461, 8-fluoro-6-{8-fluoro-2-methylimidazo[1,2-a]pyridin-6-yl}-4-methyl-2-(piperidin-4-yl)isoquinolin-1-one]
24 | > 10000 | 1000 to 10000 | Cc1cn2nc(-c3cc(F)c4c(=O)n(C5CCNC5)ccc4c3)cc(C)c2n1 (stereo in doubt) [Compound 382, (R)-6-(2,8-dimethylimidazo[1,2-b]pyridazin-6-yl)-8-fluoro-2-(pyrrolidin-3-yl)isoquinolin-1(2H)-one]
25 | 1000 to 10000 | 100 to 1000 | Cc1cn2nc(-c3ccc4c(=O)n([C@@H]5CCNC[C@H]5F)ncc4c3)cc(C)c2n1 [Compound 379]
26 | > 10000 | > 10000 | Cc1cn2c(n1)CCC(c1ccc3c(=O)n(C4CCNCC4)ccc3c1)C2 (centres unmarked) [Compound 453, 6-{2-methyl-5H,6H,7H,8H-imidazo[1,2-a]pyridin-6-yl}-2-(piperidin-4-yl)isoquinolin-1-one]

Row | Compound | IC50 (Target C) [nM] | IC50 (HTT) [nM]
27 | Cn1cc2cc(-n3cnc4cc(C5=CC6CCC(C5)N6)ccc4c3=O)ccc2n1 (centres unmarked) [Compound 160] | > 10000 | > 10000
28 | CN1C2C=C(c3ccc4c(=O)n(-c5ccc6nn(C)cc6c5)cnc4c3)CC1CC2 (centres unmarked) [Compound 161] | > 10000 | > 10000
